# Results as given in PubChem BioAssay (NCI).
#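 The compound was tested at five concentrations on cells cultured in 96-well plates, with a 48-hour exposure period. TGI marks complete inhibition of growth.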
# What was measured:
# Assay in all cases: DTP human tumour cell line panel, 48 h
# 786-0 renal = system: 786-0 renal
# A498 renal = system: A498 renal
# A549 NSCLC = system: A549 NSCLC
# ACHN renal = system: ACHN renal
# BT-549 breast = system: BT-549 breast
# CAKI-1 renal = system: CAKI-1 renal
# CCRF-CEM leukemia = system: CCRF-CEM leukemia
# COLO 205 colon = system: COLO 205 colon
# DU-145 prostate = system: DU-145 prostate
# EKVX NSCLC = system: EKVX NSCLC
# HCT-116 colon = system: HCT-116 colon
# HCT-15 colon = system: HCT-15 colon
# HL-60(TB) leukemia = system: HL-60(TB) leukemia
# HOP-62 NSCLC = system: HOP-62 NSCLC
# HS 578T breast = system: HS 578T breast
# HT29 colon = system: HT29 colon
# IGROV1 ovarian = system: IGROV1 ovarian
# K-562 leukemia = system: K-562 leukemia
# KM12 colon = system: KM12 colon
# LOX IMVI melanoma = system: LOX IMVI melanoma
# M14 melanoma = system: M14 melanoma
# MALME-3M melanoma = system: MALME-3M melanoma
# MCF7 breast = system: MCF7 breast
# MDA-MB-231 breast = system: MDA-MB-231 breast
# MDA-MB-435 = system: MDA-MB-435
# MDA-N = system: MDA-N
# MOLT-4 leukemia = system: MOLT-4 leukemia
# NCI-H226 lung = system: NCI-H226 lung
# NCI-H23 lung = system: NCI-H23 lung
# NCI-H460 lung = system: NCI-H460 lung
# NCI-H522 lung = system: NCI-H522 lung
# NCI/ADR-RES ovarian = system: NCI/ADR-RES ovarian
# OVCAR-3 ovarian = system: OVCAR-3 ovarian
# OVCAR-4 ovarian = system: OVCAR-4 ovarian
# OVCAR-5 ovarian = system: OVCAR-5 ovarian
# OVCAR-8 ovarian = system: OVCAR-8 ovarian
# PC-3 prostate = system: PC-3 prostate
# RPMI-8226 leukemia = system: RPMI-8226 leukemia
# RXF 393 renal = system: RXF 393 renal
# SF-268 CNS = system: SF-268 CNS
# SF-295 CNS = system: SF-295 CNS
# SF-539 CNS = system: SF-539 CNS
# SK-MEL-2 melanoma = system: SK-MEL-2 melanoma
# SK-MEL-28 melanoma = system: SK-MEL-28 melanoma
# SK-MEL-5 melanoma = system: SK-MEL-5 melanoma
# SN12C renal = system: SN12C renal
# SNB-19 CNS = system: SNB-19 CNS
# SNB-75 CNS = system: SNB-75 CNS
# SR leukemia = system: SR leukemia
# SW-620 colon = system: SW-620 colon
# T-47D breast = system: T-47D breast
# TK-10 renal = system: TK-10 renal
# U251 CNS = system: U251 CNS
# UACC-257 melanoma = system: UACC-257 melanoma
# UACC-62 melanoma = system: UACC-62 melanoma
# UO-31 renal = system: UO-31 renal
compound,measurement,setting,value
COC(=O)CC(c1cn(S(=O)(=O)c2ccc(C)cc2)c2ccccc12)C1C[C@@H](C(=O)OC)N(C(=O)OC(C)(C)C)C1=O (stereo partly specified),TGI,786-0 renal,> 100 µM
same,TGI,A498 renal,> 100 µM
same,TGI,A549 NSCLC,> 100 µM
same,TGI,ACHN renal,> 100 µM
same,TGI,BT-549 breast,> 100 µM
same,TGI,CAKI-1 renal,> 100 µM
same,TGI,CCRF-CEM leukemia,76.9 µM
same,TGI,COLO 205 colon,86.6 µM
same,TGI,DU-145 prostate,> 100 µM
same,TGI,EKVX NSCLC,> 100 µM
same,TGI,HCT-116 colon,> 100 µM
same,TGI,HCT-15 colon,> 100 µM
same,TGI,HL-60(TB) leukemia,> 100 µM
same,TGI,HOP-62 NSCLC,> 100 µM
same,TGI,HS 578T breast,> 100 µM
same,TGI,HT29 colon,> 100 µM
same,TGI,IGROV1 ovarian,> 100 µM
same,TGI,K-562 leukemia,> 100 µM
same,TGI,KM12 colon,> 100 µM
same,TGI,LOX IMVI melanoma,> 100 µM
same,TGI,M14 melanoma,> 100 µM
same,TGI,MALME-3M melanoma,> 100 µM
same,TGI,MCF7 breast,> 100 µM
same,TGI,MDA-MB-231 breast,> 100 µM
same,TGI,MDA-MB-435,> 100 µM
same,TGI,MDA-N,> 100 µM
same,TGI,MOLT-4 leukemia,21 µM
same,TGI,NCI-H226 lung,> 100 µM
same,TGI,NCI-H23 lung,> 100 µM
same,TGI,NCI-H460 lung,> 100 µM
same,TGI,NCI-H522 lung,> 100 µM
same,TGI,NCI/ADR-RES ovarian,> 100 µM
same,TGI,OVCAR-3 ovarian,> 100 µM
same,TGI,OVCAR-4 ovarian,> 100 µM
same,TGI,OVCAR-5 ovarian,> 100 µM
same,TGI,OVCAR-8 ovarian,> 100 µM
same,TGI,PC-3 prostate,> 100 µM
same,TGI,RPMI-8226 leukemia,35.4 µM
same,TGI,RXF 393 renal,> 100 µM
same,TGI,SF-268 CNS,> 100 µM
same,TGI,SF-295 CNS,> 100 µM
same,TGI,SF-539 CNS,65.6 µM
same,TGI,SK-MEL-2 melanoma,> 100 µM
same,TGI,SK-MEL-28 melanoma,> 100 µM
same,TGI,SK-MEL-5 melanoma,> 100 µM
same,TGI,SN12C renal,> 100 µM
same,TGI,SNB-19 CNS,> 100 µM
same,TGI,SNB-75 CNS,> 100 µM
same,TGI,SR leukemia,10.4 µM
same,TGI,SW-620 colon,> 100 µM
same,TGI,T-47D breast,> 100 µM
same,TGI,TK-10 renal,> 100 µM
same,TGI,U251 CNS,> 100 µM
same,TGI,UACC-257 melanoma,> 100 µM
same,TGI,UACC-62 melanoma,> 100 µM
same,TGI,UO-31 renal,> 100 µM
